The values below come from patent US20230295235A1, “COMPOUNDS TARGETING ALPHA4-BETA7 INTEGRIN” (ZEALAND PHARMA A/S, priority 2020, published 2023).

This test addresses T1, (α4β7-negative Th memory cells) (Homo sapiens, UniProt P05556+P13612).
T1 construct: endogenous in cells; host or cells: human whole blood
Nature of the test: Competition assay: inhibition of biotinylated rhVCAM-1-Fc binding to α4β7-negative Th memory cells in whole blood (FACS receptor occupancy). The test is classed as cell-based. To be noted: single donor, 4 mM MnCl2, α4β7-negative Th memory cells, read-out: IC50, VCAM binding. The procedure:
The compound of Example 1 was used in competition assay on CD4+ integrin α4+β7-|o memory T cells.
Receptor occupancy in primary cells was determined by measuring the amount of biotinylated human recombinant MAdCAM-1-Fc or human recombinant VCAM-1-Fc bound to selected cell populations using flow cytometry. Human recombinant MAdCAM-1-Fc or human recombinant VCAM-1-Fc (R&D systems) were biotinylated using commercially available reagents and protocol (Pierce).
Whole blood was collected from human donors in sodium heparin tubes. A volume of 100 µL of blood was incubated with the compound of Example 1 and 4 mM MnCl2 for 1 hour at room temperature. Cells were washed twice with 1 mL of 1X Dulbecco’s phosphate buffered saline (DPBS) calcium magnesium free (CMF) (ThermoFisher Scientific) and resuspended in 100 µL of DPBS CMF. […]
Fluorescence-activated cell sorting (FACS) data was acquired by electronic gating on the basis of forward versus side scatter. […] Cell population were determined using the following markers: CD45+, CD3+, CD4+,CD45RO+, CD49d+, integrin β7, biotinylated ligands.
Compound receptor occupancy was defined as the decrease in the number of integrin β7+ or integrin β7-lo cells binding biotinylated rhMAdCAM-1 or rhVCAM-1, respectively. Receptor occupancy was calculated with the following equation: […]

T1 sequence (P13612 34-1032): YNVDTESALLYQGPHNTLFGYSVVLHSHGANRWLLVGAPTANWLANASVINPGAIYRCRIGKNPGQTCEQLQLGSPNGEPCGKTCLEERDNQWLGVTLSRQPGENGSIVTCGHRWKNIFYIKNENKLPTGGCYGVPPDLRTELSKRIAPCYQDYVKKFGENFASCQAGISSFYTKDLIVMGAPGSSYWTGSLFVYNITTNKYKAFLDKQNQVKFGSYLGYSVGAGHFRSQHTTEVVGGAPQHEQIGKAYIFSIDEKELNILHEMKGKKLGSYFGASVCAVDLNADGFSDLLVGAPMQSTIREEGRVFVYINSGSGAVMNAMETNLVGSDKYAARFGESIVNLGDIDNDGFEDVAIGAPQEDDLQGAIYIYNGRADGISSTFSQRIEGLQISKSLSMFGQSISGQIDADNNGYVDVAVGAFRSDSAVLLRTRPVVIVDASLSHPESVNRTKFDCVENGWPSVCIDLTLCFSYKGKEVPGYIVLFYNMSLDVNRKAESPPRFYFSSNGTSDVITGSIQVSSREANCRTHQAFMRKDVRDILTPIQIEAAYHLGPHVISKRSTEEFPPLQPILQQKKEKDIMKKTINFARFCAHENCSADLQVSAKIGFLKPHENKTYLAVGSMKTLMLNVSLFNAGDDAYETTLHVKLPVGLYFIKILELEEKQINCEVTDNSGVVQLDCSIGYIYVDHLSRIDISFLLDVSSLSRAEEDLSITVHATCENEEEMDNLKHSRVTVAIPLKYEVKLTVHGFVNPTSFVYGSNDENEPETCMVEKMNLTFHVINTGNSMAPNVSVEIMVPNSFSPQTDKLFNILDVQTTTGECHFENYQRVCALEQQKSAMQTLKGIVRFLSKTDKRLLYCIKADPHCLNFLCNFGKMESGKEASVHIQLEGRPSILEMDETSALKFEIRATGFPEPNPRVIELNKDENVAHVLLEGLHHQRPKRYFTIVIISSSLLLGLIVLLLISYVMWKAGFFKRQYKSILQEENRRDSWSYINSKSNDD
T1 sequence (P05556 21-798): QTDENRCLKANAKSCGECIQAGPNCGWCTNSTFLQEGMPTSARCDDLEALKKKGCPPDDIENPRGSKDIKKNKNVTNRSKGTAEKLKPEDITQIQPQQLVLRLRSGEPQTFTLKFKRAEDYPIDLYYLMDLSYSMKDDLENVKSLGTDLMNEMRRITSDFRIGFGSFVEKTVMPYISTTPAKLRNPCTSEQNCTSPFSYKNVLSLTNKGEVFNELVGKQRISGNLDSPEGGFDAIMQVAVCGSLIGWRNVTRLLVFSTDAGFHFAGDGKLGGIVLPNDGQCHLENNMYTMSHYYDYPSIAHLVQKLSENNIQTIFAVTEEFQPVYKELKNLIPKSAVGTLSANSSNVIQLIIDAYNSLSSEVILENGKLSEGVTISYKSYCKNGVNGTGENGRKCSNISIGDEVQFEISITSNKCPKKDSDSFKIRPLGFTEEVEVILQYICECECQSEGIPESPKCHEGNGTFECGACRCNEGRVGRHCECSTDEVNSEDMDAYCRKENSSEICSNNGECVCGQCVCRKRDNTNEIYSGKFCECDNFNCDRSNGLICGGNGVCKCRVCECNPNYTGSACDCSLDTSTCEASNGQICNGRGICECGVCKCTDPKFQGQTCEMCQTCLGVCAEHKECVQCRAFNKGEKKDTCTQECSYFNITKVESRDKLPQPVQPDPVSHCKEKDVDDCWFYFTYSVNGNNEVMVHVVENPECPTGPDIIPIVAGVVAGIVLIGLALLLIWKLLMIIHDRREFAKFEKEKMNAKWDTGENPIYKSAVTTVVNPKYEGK

Take `CC(C)C[C@@H]1NC(=O)c2ccc(-c3ccc(N4CCN(C(=O)c5ccccc5-c5ccccc5C(=O)N5CCN(c6ccc(-c7ccc8cc7CNC(=O)[C@@H]7CCCN7[C@H](C(=O)NC(C)(C)C)[C@H](C)NC(=O)[C@H]([C@@H](C)O)NC(=O)[C@H](CC(=O)O)NC(=O)[C@H](CC(C)C)NC8=O)cc6)CC5)CC4)cc3)c(c2)CNC(=O)[C@@H]2CCCN2[C@H](C(=O)NC(C)(C)C)[C@H](C)NC(=O)[C@H]([C@@H](C)O)NC(=O)[C@H](CC(=O)O)NC1=O` [Example 1, 2,2′-((S,S,S,S,S,S,1^2,8S,11S,14S,17S,18S)-((([1,1′-Biphenyl]-2,2′-Dicarbonyl)-Bis(Piperazine-4,1-Diyl))Bis(4,1-Phenylene))Bis(18-(Tert-Butylcarbamoyl)-14-((R)-1-Hydroxyethyl)-8-Isobutyl-17-Methyl-2,6,9,12,15-Pentaoxo-3,7,10,13,16-Pentaaza-1(2,1)-Pyrrolidina-5(1,3)-Benzenacyclooctadecaphane-5^6,11-Diyl))-Diacetic Acid]: the IC50 – broadly, the midpoint of a concentration-inhibition curve – is around 0.6 µM.
